Source: article PMC7312485, “Lessons on the Sigma-1 Receptor in TNBS-Induced Rat Colitis: Modulation of the UCHL-1, IL-6 Pathway” (International Journal of Molecular Sciences, 2020)

How the values were obtained:
IL-6 = IL-6 levels in colon by ELISA, TNBS colitis; assay type: in vivo, rat
Description: (§1) Male Wistar–Harlan rats (225–250 g) were purchased from Toxicoop Ltd. (Dunakeszi, Hungary) and housed in a room with acclimatized temperature under 12h day/night cycles with food and water ad libitum. Animals were randomly divided into 3 groups: absolute control (no treatment, n = 12), 50% EtOH (ethanol enema, n = 12), and TNBS (10 mg dissolved in 50% Ethanol, n = 85). Colitis was assessed following Morris’ method. Animals fasted overnight and a TNBS enema was administered intracolonically (i.c.) with an 8cm long polyethylene canulla through the anus under mild anesthesia (Thiopental, i.p. 40 mg/kg). […]
(§2) To determine the tissue levels of IL-6 and eNOS in the colon, we used double-antibody sandwich ELISA kits specific for rat IL-6 or eNOS. eNOS kit was purchased from MyBioSource (MBS721860; San Diego, CA, USA) and IL-6 was purchased from GenAsia Biotech Co., Ltd. (Shanghai, China). […] Parameters were measured according to the manufacturer’s instructions and protocols, and optical densities (OD) were assayed at λ = 450 nm. […]

NF-κB p65 subunit = test: Western blot of NF-κB p65 expression in colon, TNBS colitis; assay type: in vivo, rat; conditions: TNBS group 0.83 ± 0.09
Description: as §1
(§3) In total, 30 mg from each powdered sample was measured and suspended in RIPA buffer (Merck Millipore, Burlington, MA, USA) supplemented with phenylmethylsulfonyl fluoride (PMSF) (Sigma-Aldrich, Budapest, Hungary); 1/10 of the final volume. […] The supernatant was collected and protein concentration was determined by using a Bradford assay and bovine serum albumin as a standard. […] Results were analyzed using Quantity One Software version 4.5 (Bio-Rad Laboratories, Hercules, CA, USA). […]

sigma-1 receptor (σ1R) [1] = test: Western blot of sigma-1 receptor expression in colon, TNBS colitis; assay type: in vivo, rat
Description: as §1, §3

UCHL-1 = test: Western blot of UCHL-1 expression in colon, TNBS colitis; assay type: in vivo, rat; conditions: FLV 1 mg/kg i.c.; TNBS group 1.23 ± 0.16
Description: as §1, §3

[2] = test system: heme oxygenase enzyme (HO); test: Heme oxygenase activity (bilirubin formation) in colon, TNBS colitis; assay type: in vivo, rat; conditions: TNBS group 0.26 ± 0.03
Description: (§4) Animals were randomly divided into 3 groups: absolute control (no treatment, n = 12), 50% EtOH (ethanol enema, n = 12), and TNBS (10 mg dissolved in 50% Ethanol, n = 85). Colitis was assessed following Morris’ method. Animals fasted overnight and a TNBS enema was administered intracolonically (i.c.) with an 8cm long polyethylene canulla through the anus under mild anesthesia (Thiopental, i.p. 40 mg/kg). […] Animals were fasted for 5 h each day before i.c. treatments.
(§5) After 72 h of TNBS administration, euthanized animals (Thiopental, i.p. 100 mg/kg) were sacrificed and the last 8 cm portion of the colon was removed, gently opened, rinsed in physiological saline and photographed for further macroscopic analysis. Then, the colon segments were frozen in liquid nitrogen. Frozen colon tissues were powdered in liquid nitrogen by using a porcelain mortar and pestle and kept at −80 °C until used for biochemical measurements.

TNBS-induced rat colitis = test: Severity of inflammation (macroscopic lesion area by planimetry) in TNBS-induced colitis; assay type: in vivo; conditions: TNBS group 61.68 ± […]
Description: as §4, §5
The extent of macroscopically apparent inflammation, ulceration and tissue disruption was determined in a randomized manner from the colored images, using proprietary computerized planimetry software which was developed in our laboratory (Stat_2_1_1, Szeged, Hungary) and is based on planimetrics. The area of macroscopically visible mucosal damage was calculated and expressed as a % of the total studied 8 cm colonic segment.

sigma-1 receptor (σ1R) [3] = target: T1, sigma-1 receptor (σ1R) (Rattus norvegicus, UniProt Q9R0C9); test: [3H](+)-pentazocine saturation binding in rat colon membranes; conditions: TNBS-induced colitis rat colon membranes after 1 mg/kg FLV administration (TNBS + FLV)
T1 construct: from tissue; host or cells: rat colon membrane homogenate (male Wistar–Harlan rats; control, TNBS, 50% EtOH, TNBS + FLV treated)
T1 sequence (Q9R0C9 whole entry): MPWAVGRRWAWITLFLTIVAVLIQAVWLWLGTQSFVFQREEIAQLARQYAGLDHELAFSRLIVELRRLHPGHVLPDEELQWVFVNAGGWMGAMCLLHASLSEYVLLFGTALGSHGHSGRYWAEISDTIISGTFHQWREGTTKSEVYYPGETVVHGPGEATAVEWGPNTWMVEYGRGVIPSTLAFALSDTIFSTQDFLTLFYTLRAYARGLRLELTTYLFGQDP
Description: The homogenate was centrifuged at 17,000× g for 10 min (4 °C).
The incubation was terminated by diluting the samples with an ice-cold wash buffer (50 mM of Tris–HCl, pH 8.0), followed by repeated washing and rapid filtration through Whatman GF/B glass fiber filters (Whatman Ltd., Maidstone, UK) presoaked with 0.1% polyethyleneimine. Filtration was performed with a 24-well Brandel Cell Harvester (Gaithersburg, MD, USA). Filters were air-dried and immersed into Ultima Gold MV scintillation cocktail, and then radioactivity was measured with a TRI-CARB 2100TR liquid scintillation analyzer (Packard, Perkin Elmer, Waltham, MA, USA).
All data are presented as mean ± SEM. […] In competition binding studies, the inhibitory constants (Ki) were calculated from the inflection points of the displacement curves using nonlinear least-square curve fitting and the Cheng–Prusoff equation, Ki = EC50/(1 + [ligand]/Kd).

eNOS = eNOS levels in colon by ELISA, TNBS colitis; assay type: in vivo, rat; conditions: FLV 1 mg/kg i.c.; TNBS group 2.62 ± 0.126
Description: as §1, §2

[4] = test system: myeloperoxidase enzyme (MPO); test: Myeloperoxidase activity in colon, TNBS colitis; assay type: in vivo, rat
Description: as §4, §5
To further break the membranes, three freeze–thaw cycles were applied in liquid nitrogen and a 37 °C water bath. Homogenates then were centrifuged at 10,000× g for 15 min at 4 °C. […] The reaction was started with the addition of 10 µL 0.03% hydrogen peroxide (H2O2). After shaking for 90 s, MPO activity was assayed spectrophotometrically at 490 nm (Benchmark Microplate Reader, Bio-Rad Laboratories, Hercules, CA, USA). MPO activity was expressed as uU/mg protein.

HMGB1 = test: Western blot of HMGB1 expression in colon, TNBS colitis; assay type: in vivo, rat; conditions: TNBS group 1.75 ± 0.165
Description: as §1, §3

iNOS = test: Western blot of iNOS expression in colon, TNBS colitis; assay type: in vivo, rat
Description: as §1, §3

COCCCC/C(=N\OCCN)c1ccc(C(F)(F)F)cc1 [FLV, Fluvoxamine]
IL-6 levels in colon (IL-6; FLV 1 mg/kg i.c., TNBS group 60.48 ± 4.55): 30.53 ± 4.10 ng/L
NF-κB p65 subunit expression (normalized to β-actin) (NF-κB p65 subunit; FLV 1 mg/kg i.c.): 0.52 ± 0.04 relative expression
σ1R expression (normalized to β-actin) (sigma-1 receptor (σ1R) [1]; FLV 1 mg/kg i.c., TNBS group 0.326 ± 0.05): 0.72 ± 0.083 relative expression
UCHL-1 expression (normalized to β-actin) (UCHL-1): 2.104 ± 0.13 relative expression
HO enzyme activity ([2]; FLV 1 mg/kg i.c.): 0.40 ± 0.03 nmol bilirubin/h/mg protein
Severity of inflammation (area of mucosal damage, % of 8 cm colonic segment) (TNBS-induced rat colitis; 0.1 mg/kg FLV i.c. once a day, 72 h after TNBS): 41.23 ± 5.76%
Severity of inflammation (area of mucosal damage, % of 8 cm colonic segment) (TNBS-induced rat colitis; 1 mg/kg i.c. once a day, 72 h after TNBS): 28.29 ± 2.53%
Bmax ± S.E.M., saturation binding (σ1R density) (sigma-1 receptor (σ1R) [3]): 134 ± 14 fmol/mg
eNOS levels (eNOS): 4.21 ± 0.66 relative expression
MPO activity ([4]; FLV 1 mg/kg i.c., TNBS group 42653.4 ± 3220.24): 25021.2 ± 2554.66 uU/mg protein
HMGB1 expression (normalized to β-actin) (HMGB1; FLV 1 mg/kg i.c.): 1.264 ± 0.07 relative expressions
iNOS expression (normalized to β-actin) (iNOS; FLV 1 mg/kg i.c., TNBS group 0.53 ± 0.02): 0.255 ± 0.11 relative expression

O=C(O)c1cc(/N=N/c2ccc(S(=O)(=O)Nc3ccccn3)cc2)ccc1O [SASP, Sulfasalazine]
Severity of inflammation (area of mucosal damage, % of 8 cm colonic segment) (TNBS-induced rat colitis; positive control, 2 × 25 mg/kg per os): 35.78 ± 2.83%

CN1CCN(CCc2ccc(Cl)c(Cl)c2)CC1 [BD1063]
IL-6 levels vs. TNBS group (IL-6; BD1063 0.1 mg/kg i.c.): didn’t affect IL-6 levels
NF-κB p65 subunit expression (normalized to β-actin) (NF-κB p65 subunit; BD1063 0.1 mg/kg i.c.): 0.48 ± 0.03 relative expression
σ1R expression vs. TNBS group (sigma-1 receptor (σ1R) [1]; BD1063 0.1 mg/kg i.c.): didn’t affect the expression of the receptor
HO enzyme activity ([2]; BD1063 0.1 mg/kg i.c.): 0.40 ± 0.04 nmol bilirubin/h/mg protein
Severity of inflammation (area of mucosal damage, % of 8 cm colonic segment) (TNBS-induced rat colitis; 0.1 mg/kg BD1063 i.c. once a day): 76.77 ± 2.52%
MPO activity vs. TNBS group ([4]; BD1063 0.1 mg/kg i.c.): didn’t affect the activity of the MPO
HMGB1 expression (normalized to β-actin) (HMGB1; BD1063 0.1 mg/kg i.c.): 1.305 ± 0.044 relative expressions
iNOS expression vs. TNBS group (iNOS; BD1063 0.1 mg/kg i.c.): did not alter the expression of iNOS
